According to patent publication US20050261264A1, “Rare-earth ternary complex” (priority 2000, published 2005):

Columns and labels:
Format in all cases: physicochemical
[1] = Miscibility with solvents, visual evaluation at 5 wt %; design: key: ⊚: dissolves at room temperature; ◯: dissolves when heated for 5 minutes at 40° C.; Δ: dissolves under heating, but cooling precipitates crystals; X: does not dissolve; settings: complex added at 5 wt %
Protocol: (§1) The miscibility of the rare earth complex with various media was evaluated as follows.
1) Miscibility with Solvents

[2] = Miscibility with a polymer matrix, visual evaluation; design: key to Miscibility, PMMA: ⊚: dissolves up to 30 wt %; ◯: dissolves up to 5 wt %; Δ: disperses up to 5 wt %, but there is turbidity; X: repelled at the polymer surface
Protocol: as §1
2) Miscibility with a Polymer Matrix
The rare earth complex serving as the sample was added in the concentrations listed with the evaluation criteria below relative to various media, and the miscibility was visually evaluated according to the following criteria. • ⊚: dissolves up to 30 wt % • ◯: dissolves up to 5 wt % • Δ: disperses up to 5 wt %, but there is turbidity • X: repelled at the polymer surface

[3] = Number of moles of bound water per mole of complex (TG-DTA); settings: for Bound water (number of moles of bound water per mole of complex): Table 1, dried samples for the ternary complexes
Protocol: The number of moles of bound water per mole of complex was measured using a TG-DTA 2000 from MAC Science.
A 20 g quantity of Eu(PMS)3 was added to 100 mL of isopropanol, then 43 g ([…] the molar amount of the Eu(PMS)3) of triphenylphosphine oxide (hereinafter referred to as TPPO) was added, and the system was refluxed for 3 hours, and then gradually cooled. The resulting white powder was filtered off. The white powder thus obtained was washed with hot n-hexane, and recrystallized with water-methanol to obtain 44 g of Eu(PMS)3(TPPO)8 in the form of white acicular crystals (yield: 85%). The TG-DTA was measured for these crystals, and it was found from the weight reduction at 100° C. that the number of moles of bound water per mole of complex was 2.93. The IR, NMR, UV absorption characteristics, and elemental analysis results for the obtained Eu(PMS)3(TPPO)8(H2O)2.93 are given below.
Eu(PMS)3(TPPO)8(H2O)2.93 obtained by the above synthesis method was dried in vacuo for 3 hours at 140° C. and a reduced pressure of […]. TG-DTA measurement for the resulting white powder was carried out to obtain a weight reduction at 100° C. It was found from the obtained value that the number of moles of bound water per mole of complex was 0.18.

[4] = Luminescence quantum yield and luminescence intensity in solution; settings: acetone-d6 solution; for Relative luminescence intensity: Nd 0.05 mol/L, relative to Nd(PMS)3 (Comparative Example 10) = 1; for Luminescence quantum yield: neodymium ion 0.05 mol/L, excitation 585 nm, luminescence 1064 nm
Protocol: (§2) The intensity of luminescence and the luminescence quantum yield, the quotient of dividing the number of photons emitted from a sample by the number of photons absorbed into the sample, were measured with an SS-25 from JASCO Corporation.
The luminescence quantum yield of an acetonitrile solution of the Eu(PMS)3(TPPO)8 obtained in Example 1 (europium ion concentration: 0.05 mol/L) was measured (excitation wavelength: 465 nm, maximum luminescence wavelength: 612 nm, luminescence wavelength used in measurement: 612 nm).
The solutions prepared in Examples 12 to 14 and Comparative Examples 7 to 9 and Comparative Example B were measured for luminescence intensity at the respective maximum luminescence wavelengths.
The relative luminescence intensity of the solutions used in Examples 12 to 14 and Comparative Example B: (luminescence intensity in each of Examples 12 to 14)/(luminescence intensity in Comparative Example 7) was calculated, letting 1 be the luminescence intensity in Comparative Example 7 (solution of a rare earth complex in which the ligand Z was not coordinated).
Similarly, the relative luminescence intensity in Comparative Example 9: (luminescence intensity in Comparative Example 9)/(luminescence intensity in Comparative Example 8) was calculated, letting 1 be the luminescence intensity in Comparative Example 8 (solution of a known β-diketone-type of rare earth complex in which the ligand Z was not coordinated). The relative luminescence intensity of the solution used in Comparative Example B was 1.6 times.
The luminescence quantum yield of an acetone-d6 solution of the Nd(PMS)3(TPPO)8 obtained in Example 2 (neodymium ion concentration: 0.05 mol/L) was measured (excitation wavelength: 585 nm, maximum luminescence wavelength: 1064 nm, luminescence wavelength used in measurement: 1064 nm).
The solutions prepared in Examples 15 and 16 and Comparative Examples 10 were measured for luminescence intensity at the respective maximum luminescence wavelengths. The relative luminescence intensity in Examples 15 and 16: (luminescence intensity in each of Examples 15 and 16)/(luminescence intensity in Comparative Example 10) was calculated, letting 1 be the luminescence intensity in Comparative Example 10 (rare earth complex in which the ligand Z was not coordinated).

[5] = Luminescence quantum yield and luminescence intensity in PMMA polymer matrix composition; settings: PMMA rod; for Relative luminescence intensity: Nd 0.7 wt %, relative to Nd(PMS)3 (Comparative Example 12) = 1; for Luminescence quantum yield: rare earth ion 0.7 wt %, excitation 585 nm, luminescence 1064 nm
Protocol: as §2
A 1 mL quantity of refined anhydrous methyl methacrylate (MMA), 0.5 mg of AIBN, and 148 mg (0.7 wt %) as the rare earth ion concentration) of the Eu (PMS)3 (TPPO)8 obtained in Example 1 were mixed, the mixture was transferred to a Pyrex tube, and the inside of the tube was deaerated and then sealed. By reacting for 5 hours at 60° C., the polymerization of MMA was carried out. The resulting PMMA containing Eu(PMS)3 (TPPO)8 was taken out of the Pyrex tube, and a rod-shaped polymer matrix composition was obtained.
The polymer matrix compositions prepared in Examples 17 to 19 and Comparative Example 11 were measured for luminescence intensity at the respective maximum luminescence wavelengths. The relative luminescence intensity in Examples 17 to 19: (luminescence intensity in each of Examples 17 to 19)/(luminescence intensity in Comparative Example 11) was calculated, letting 1 be the luminescence intensity in Comparative Example 11 (rare earth complex in which the ligand Z was not coordinated).
A rod-shaped polymer matrix composition containing […] was obtained in the same manner as in Example 17, except that 148 mg (rare earth ion concentration: 0.7 wt %) of the Nd(PMS)3 (TPPO)8 obtained in Example 2 was used instead of Eu(PMS)3 (TPPO)8.
The polymer matrix compositions prepared in Examples 20 and 21 and Comparative Example 12 were measured for luminescence intensity at the respective maximum luminescence wavelengths. The relative luminescence intensity in Examples 20 and 21: (luminescence intensity in each of Examples 20 and 21)/(luminescence intensity in Comparative Example 12) was calculated, letting 1 be the luminescence intensity in Comparative Example 12 (rare earth complex in which the ligand Z was not coordinated).

Structure (SMILES) | Miscibility, Acetone [1] | Miscibility, Chloroform [1] | Miscibility, Toluene [1] | Miscibility, Water [1] | Miscibility, Epoxy resin [2] | Miscibility, Nafion [2] | Miscibility, PMMA [2] | Bound water (number of moles of bound water per mole of complex) [3] | Relative luminescence intensity [4] | Luminescence quantum yield [4] [%] | Relative luminescence intensity [5] | Luminescence quantum yield [5] [%] | Number of moles of bound water per mole of complex ([3]; after drying in vacuo at 140° C.) | Number of moles of bound water per mole of complex ([3]; before drying (crystals as obtained), weight reduction at 100° C.)
O=S(=O)([N-]S(=O)(=O)C(F)(F)F)C(F)(F)F.O=S(=O)([N-]S(=O)(=O)C(F)(F)F)C(F)(F)F.O=S(=O)([N-]S(=O)(=O)C(F)(F)F)C(F)(F)F.O=S(c1ccccc1)c1ccccc1.O=S(c1ccccc1)c1ccccc1.O=S(c1ccccc1)c1ccccc1.O=S(c1ccccc1)c1ccccc1.O=S(c1ccccc1)c1ccccc1.O=S(c1ccccc1)c1ccccc1.O=S(c1ccccc1)c1ccccc1.O=S(c1ccccc1)c1ccccc1.[Nd+3] [Nd(PMS)3(DPSO)8] | ⊚ | ◯ | ◯ | X | ◯ (dissolves up to 5 wt %) | ◯ (dissolves up to 5 wt %) | ◯ (dissolves up to 5 wt %) | 0.00 | 1.6 | 1.3 | 90 | 0.9 | – | –
O=P(c1ccccc1)(c1ccccc1)c1ccccc1.O=P(c1ccccc1)(c1ccccc1)c1ccccc1.O=P(c1ccccc1)(c1ccccc1)c1ccccc1.O=P(c1ccccc1)(c1ccccc1)c1ccccc1.O=P(c1ccccc1)(c1ccccc1)c1ccccc1.O=P(c1ccccc1)(c1ccccc1)c1ccccc1.O=P(c1ccccc1)(c1ccccc1)c1ccccc1.O=P(c1ccccc1)(c1ccccc1)c1ccccc1.O=S(=O)([N-]S(=O)(=O)C(F)(F)F)C(F)(F)F.O=S(=O)([N-]S(=O)(=O)C(F)(F)F)C(F)(F)F.O=S(=O)([N-]S(=O)(=O)C(F)(F)F)C(F)(F)F.[Nd+3] [Nd(PMS)3(TPPO)8] | ⊚ | ⊚ | ◯ | X | ◯ (dissolves up to 5 wt %) | ◯ (dissolves up to 5 wt %) | ◯ (dissolves up to 5 wt %) | 0.24 | 1.4 | 1.1 | 80 | 0.8 | 0.24 | 3.41
O=S(=O)([N-]S(=O)(=O)C(F)(F)F)C(F)(F)F.O=S(=O)([N-]S(=O)(=O)C(F)(F)F)C(F)(F)F.O=S(=O)([N-]S(=O)(=O)C(F)(F)F)C(F)(F)F.[Nd+3] [Nd(PMS)3, reference compound] | ⊚ | X | X | ⊚ | Δ (disperses up to 5 wt %, but there is turbidity) | Δ (disperses up to 5 wt %, but there is turbidity) | X | 2.32 | 1.0 | 0.8 | 1.0 | <0.1 | – | –
